target: NAMPT enzyme (Homo sapiens (Human), UniProt P43490); experiment: Enzyme Assay and NMN Detection (NAMPT reaction, fluorescence detection of NMN); assay type: biochemical; conditions: Table B-1; NAMPT activation, NMN formation
How it was run: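 Reaction in 50 mM HEPES pH 7.5, 5 mM MgCl2, 0.1% Prionex, 0.005% Tween 20, 1 mM TCEP at room temperature, with 16 nM NAMPT, 120 uM ATP, 5 uM nicotinamide, 6.25 uM PRPP, 0.04 U/ml pyrophosphatase for 2 h. Stopped with acetophenone/KOH then formic acid; NMN quantified by fluorescence (ex380/em460) against calibration curve.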

NAMPT enzyme, sequence (P43490 whole entry, species assumed): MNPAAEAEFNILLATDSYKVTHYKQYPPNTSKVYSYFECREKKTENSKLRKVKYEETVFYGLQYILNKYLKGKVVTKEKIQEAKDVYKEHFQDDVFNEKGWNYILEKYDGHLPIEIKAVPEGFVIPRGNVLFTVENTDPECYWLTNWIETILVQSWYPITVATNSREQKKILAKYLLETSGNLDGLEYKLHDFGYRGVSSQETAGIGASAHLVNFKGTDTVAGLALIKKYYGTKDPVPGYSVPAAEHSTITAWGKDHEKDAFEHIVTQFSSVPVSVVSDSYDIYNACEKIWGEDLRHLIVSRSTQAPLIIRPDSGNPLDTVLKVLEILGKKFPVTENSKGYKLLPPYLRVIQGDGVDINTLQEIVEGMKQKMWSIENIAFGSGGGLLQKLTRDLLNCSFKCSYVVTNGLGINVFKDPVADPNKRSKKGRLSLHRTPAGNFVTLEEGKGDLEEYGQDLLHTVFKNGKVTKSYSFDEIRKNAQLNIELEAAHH

SMILES | EC50 [nM]
COc1ccccc1NC(=O)c1ccc(NC(=O)NCc2cn[nH]c2)cc1 [4-(3-((1H-pyrazol-4-yl)methyl)ureido)-N-(2-methoxyphenyl)benzamide] | 100 to 2000
CCOC(=O)c1ccc(NC(=O)NCc2cncn2C)cc1 [Ethyl 4-(3-((1-methyl-1H-imidazol-5-yl)methyl)ureido)benzoate] | > 20000
CCOC(=O)c1ccc(NC(=O)NCc2cn(C)cn2)cc1 [Ethyl 4-(3-((1-methyl-1H-imidazol-4-yl)methyl)ureido)benzoate] | > 20000
O=C(NCc1cn[nH]c1)Nc1ccc(S(=O)(=O)NCC2CCC2)cc1 [N-Cyclobutylmethyl-4-[3-(1H-pyrazol-4-ylmethyl)-ureido]-benzenesulfonamide] | 100 to 2000

The remaining lines, values ahead:

EC50 [nM] | SMILES
< 100 | O=C(NCc1cnco1)Nc1ccc(S(=O)(=O)c2ccccc2)cc1 [1-(4-Benzenesulfonyl-phenyl)-3-oxazol-5-ylmethyl-urea]
< 100 | O=C(NCc1cn[nH]c1)Nc1ccc(S(=O)(=O)c2ccccc2)cc1 [1-(4-Benzenesulfonyl-phenyl)-3-(1H-pyrazol-4-ylmethyl)-urea]
100 to 2000 | O=C(NCc1cncs1)Nc1ccc(S(=O)(=O)N2CCc3ccccc3C2)cc1 [1-[4-(3,4-Dihydro-1H-isoquinoline-2-sulfonyl)-phenyl]-3-thiazol-5-ylmethyl-urea]
< 100 | COc1ccccc1S(=O)(=O)c1ccc(NC(=O)NCc2cn[nH]c2)cc1 [1-[4-(2-Methoxy-benzenesulfonyl)-phenyl]-3-(1H-pyrazol-4-ylmethyl)-urea]

same assay, conditions: Table B-2; NAMPT activation, NMN formation

SMILES | EC50 [nM]
Cc1ccc(CNC(=O)c2ccc(NC(=O)NCc3ccncc3)cc2)cc1 [N-(4-methylbenzyl)-4-(3-(pyridin-4-ylmethyl)ureido)benzamide] | > 20000
COc1ccc(NC(=O)c2ccc(NC(=O)NCc3ccncc3)cc2)cc1OC [N-(3,4-dimethoxyphenyl)-4-(3-(pyridin-4-ylmethyl)ureido)benzamide] | 100 to 2000
COCc1ccc(NC(=O)c2ccc(NC(=O)NCc3ccncc3)cc2)cc1 [N-(4-(methoxymethyl)phenyl)-4-(3-(pyridin-4-ylmethyl)ureido)benzamide] | > 20000
CN(c1ccc(NC(=O)NCc2ccncc2)cc1)S(=O)(=O)Cc1ccccc1 [N-methyl-C-phenyl-N-[4-(3-pyridin-4-ylmethyl-ureido)-phenyl]-methanesulfonamide] | < 100
CN(c1ccccc1)S(=O)(=O)Cc1ccc(NC(=O)NCc2ccncc2)cc1 [N-Methyl-N-phenyl-C-[4-(3-pyridin-4-ylmethyl-ureido)-phenyl]-methanesulfonamide] | 100 to 2000
Cc1cccc(NC(=O)c2ccc(NC(=O)NCc3ccncc3)cc2)c1 [4-(3-(Pyridin-4-ylmethyl)ureido)-N-(m-tolyl)benzamide] | 100 to 2000
O=C(NCc1ccncc1)Nc1ccc(C(=O)N2Cc3ccccc3C2)cc1 [1-(4-(Isoindoline-2-carbonyl)phenyl)-3-(pyridin-4-ylmethyl)urea] | > 20000
Cc1ccccc1NC(=O)c1ccc(NC(=O)NCc2ccncc2)cc1 [4-(3-(Pyridin-4-ylmethyl)ureido)-N-(o-tolyl)benzamide] | 100 to 2000

The next lines start with the values.

EC50 [nM] | SMILES
2000 to 5000 | CN1CCC(NS(=O)(=O)c2ccc(NC(=O)NCc3ccncc3)cc2)C1 (centres unmarked) [N-(1-Methyl-pyrrolidin-3-yl)-4-(3-pyridin-4-ylmethyl-ureido)-benzenesulfonamide]
100 to 2000 | COCc1ccc(CNS(=O)(=O)c2ccc(NC(=O)NCc3ccncc3)cc2)cc1 [N-(4-Methoxymethyl-benzyl)-4-(3-pyridin-4-ylmethyl-ureido)-benzenesulfonamide]
100 to 2000 | CC(C)(C)CNS(=O)(=O)c1ccc(NC(=O)NCc2ccncc2)cc1 [N-neopentyl-4-(3-pyridin-4-ylmethyl-ureido)-benzenesulfonamide]
< 100 | O=C(NCc1ccncc1)Nc1ccc(S(=O)(=O)NCc2ccccc2Cl)cc1 [N-(2-Chloro-benzyl)-4-(3-pyridin-4-ylmethyl-ureido)-benzenesulfonamide]
100 to 2000 | CCCNS(=O)(=O)c1ccc(NC(=O)NCc2ccncc2)cc1 [N-Propyl-4-(3-pyridin-4-ylmethyl-ureido)-benzenesulfonamide]

same assay, conditions: Table B-3; NAMPT activation, NMN formation

EC50 [nM] | SMILES
> 20000 | O=C(NCc1ccccn1)Nc1ccc(OC(F)(F)F)cc1 [1-(Pyridin-2-ylmethyl)-3-(4-(trifluoromethoxy)phenyl)urea]

same assay, conditions: Table B-4; NAMPT activation, NMN formation

EC50 [nM] | SMILES
100 to 2000 | O=C(NCc1cn[nH]c1)Nc1ccc(S(=O)(=O)C2CCN(C3CCOCC3)CC2)cc1 [1-(1H-Pyrazol-4-ylmethyl)-3-{4-[1-(tetrahydro-pyran-4-yl)-piperidine-4-sulfonyl]-phenyl}-urea]
< 100 | O=C(NCc1cn[nH]c1)Nc1ccc(S(=O)(=O)c2cccc(OC(F)(F)F)c2)cc1 [1-(1H-Pyrazol-4-ylmethyl)-3-[4-(3-trifluoromethoxy-benzenesulfonyl)-phenyl]-urea]
5000 to 20000 | O=C(NCc1cn[nH]c1)Nc1ccc(-c2ncc(-c3ccccc3)s2)cc1 [1-((1H-Pyrazol-4-yl)methyl)-3-(4-(5-phenylthiazol-2-yl)phenyl)urea]

same assay, conditions: Table B-5; NAMPT activation, NMN formation

EC50 [nM] | SMILES
100 to 2000 | N#Cc1ccc(S(=O)(=O)c2ccc(NC(=O)NCc3cnco3)cc2)cc1 [1-[4-(4-Cyano-benzenesulfonyl)-phenyl]-3-oxazol-5-ylmethyl-urea]
100 to 2000 | Cn1nc(-c2ccc(NC(=O)NCc3cnco3)cc2)c2cc(Cl)ccc21 [1-(4-(5-Chloro-1-methyl-1H-indazol-3-yl)phenyl)-3-(oxazol-5-ylmethyl)urea]
100 to 2000 | O=C(NCc1cnco1)Nc1ccc(S(=O)(=O)c2cc(F)cc(F)c2)cc1 [1-[4-(3,5-Difluoro-benzenesulfonyl)-phenyl]-3-oxazol-5-ylmethyl-urea]
5000 to 20000 | Cn1nc(-c2ccc(NC(=O)NCc3cnco3)cc2)c2cnccc21 [1-[4-(1-Methyl-1H-pyrazolo[4,3-c]pyridin-3-yl)-phenyl]-3-oxazol-5-ylmethyl-urea]
100 to 2000 | O=C(NCc1cnco1)Nc1ccc(S(=O)(=O)c2ccc(F)cc2F)cc1 [1-[4-(2,4-Difluoro-benzenesulfonyl)-phenyl]-3-oxazol-5-ylmethyl-urea]
2000 to 5000 | Cc1ccc(S(=O)(=O)c2ccc(NC(=O)NCc3cnco3)cc2)cc1 [1-Oxazol-5-ylmethyl-3-[4-(toluene-4-sulfonyl)-phenyl]-urea]
2000 to 5000 | Cn1nc(-c2ccc(NC(=O)NCc3cnco3)cc2)c2ncccc21 [1-[4-(1-Methyl-1H-pyrazolo[4,3-b]pyridin-3-yl)-phenyl]-3-oxazol-5-ylmethyl-urea]

same assay, conditions: Table B-6; NAMPT activation, NMN formation

SMILES | EC50 [nM]
O=C(NCc1cn[nH]c1)Nc1ccc(S(=O)(=O)C2CCN(C3CCOCC3)CC2)cc1 [1-(1H-Pyrazol-4-ylmethyl)-3-{4-[1-(tetrahydro-pyran-4-yl)-piperidine-4-sulfonyl]-phenyl}-urea] | 100 to 2000
Cc1ccc2c(-c3ccc(NC(=O)NCc4ccncc4)cc3)nn(C)c2c1 [1-[4-(1,6-Dimethyl-1H-indazol-3-yl)-phenyl]-3-pyridin-4-ylmethyl-urea] | 100 to 2000
Cc1cccc2c(-c3ccc(NC(=O)NCc4ccncc4)cc3)nn(C)c12 [1-(4-(1,7-Dimethyl-1H-indazol-3-yl)phenyl)-3-(pyridin-4-ylmethyl)urea] | 100 to 2000

The remaining lines, values ahead:

EC50 [nM] | SMILES
100 to 2000 | O=C(NCc1ccncc1)Nc1ccc(S(=O)(=O)c2cccnc2)cc1 [1-[4-(Pyridine-3-sulfonyl)-phenyl]-3-pyridin-4-ylmethyl-urea]
100 to 2000 | COc1cccc(-c2ccccc2S(=O)(=O)c2ccc(NC(=O)NCc3ccncc3)cc2)c1 [1-[4-(3′-Methoxy-biphenyl-2-sulfonyl)-phenyl]-3-pyridin-4-ylmethyl-urea]
100 to 2000 | O=C(NCc1ccncc1)Nc1ccc(S(=O)(=O)c2ccc(O)nc2)cc1 [1-[4-(6-Hydroxy-pyridine-3-sulfonyl)-phenyl]-3-pyridin-4-ylmethyl-urea]
